Results reported in US9587005B2 (priority 2010, dated 2017).
pEC50: −log10 of the molar value. Where two headings read alike, the source gives them in different places. *1 amine or outer side, *2 acyl side, *3 side chain or, on linkers, in order; H or OH if unused. Where a SMILES comes first, the peptide text is derived from it. Where no end group is shown, it is not given here. Side-chain parts run from the residue outwards. [ ]: non-standard residue; d: D form. The star is where a group is joined. Phe(4-NH2) = Nc1ccc(C[C@H](N)C(=O)O)cc1; γGlu = O=C(O)[C@H](CCC(=O)[*:2])N[*:1]; Palmitoyl = CCCCCCCCCCCCCCCC(=O)*; Aib = CC(C)(N)C(=O)O

Experiments:
Assay type in all cases: cell-based
GIP receptor = target: T1, GIP receptor (Homo sapiens, UniProt P48546); assay: cAMP induction, firefly luciferase reporter assay in HEK293 cells co-transfected with GIP receptor; details: for EC50: EC50 (nM) at GIP Receptor
T1 sequence (P48546 22-466): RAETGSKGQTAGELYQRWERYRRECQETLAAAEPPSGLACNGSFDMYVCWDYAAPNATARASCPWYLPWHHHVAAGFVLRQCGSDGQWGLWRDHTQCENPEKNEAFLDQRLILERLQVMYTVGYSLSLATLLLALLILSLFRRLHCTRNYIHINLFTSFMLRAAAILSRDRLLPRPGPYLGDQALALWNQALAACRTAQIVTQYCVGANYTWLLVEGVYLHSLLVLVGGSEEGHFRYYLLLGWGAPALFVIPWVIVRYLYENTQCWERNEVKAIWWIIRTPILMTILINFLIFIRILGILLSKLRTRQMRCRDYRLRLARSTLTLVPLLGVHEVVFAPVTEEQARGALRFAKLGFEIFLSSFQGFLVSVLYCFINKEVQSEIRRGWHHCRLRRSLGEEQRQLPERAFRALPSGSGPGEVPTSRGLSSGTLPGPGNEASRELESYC

GLP-1 receptor = target: T2, GLP-1 receptor (Homo sapiens, UniProt P43220); assay: cAMP induction, firefly luciferase reporter assay in HEK293 cells co-transfected with GLP-1 receptor; details: for EC50: EC50 (nM) at GLP-1 Receptor
T2 construct: expressed in transfected cells; host or cells: HEK293
Excerpt: (§1) This example describes an exemplary method of testing the biological activity of the peptides of the present disclosures, which method involves assaying cAMP synthesis.

glucagon receptor = target: T3, glucagon receptor (Homo sapiens, UniProt P47871); assay: cAMP induction, firefly luciferase reporter assay in HEK293 cells co-transfected with glucagon receptor; details: for EC50: EC50 (nM) at Glucagon Receptor
T3 construct: expressed in transfected cells; host or cells: HEK293
Excerpt: as §1

[1] = Table 4, Example 9, composite of multiple different activity assays
[2] = Table 3, relative to the activity of the native hormone

T2 sequence (P43220 24-463): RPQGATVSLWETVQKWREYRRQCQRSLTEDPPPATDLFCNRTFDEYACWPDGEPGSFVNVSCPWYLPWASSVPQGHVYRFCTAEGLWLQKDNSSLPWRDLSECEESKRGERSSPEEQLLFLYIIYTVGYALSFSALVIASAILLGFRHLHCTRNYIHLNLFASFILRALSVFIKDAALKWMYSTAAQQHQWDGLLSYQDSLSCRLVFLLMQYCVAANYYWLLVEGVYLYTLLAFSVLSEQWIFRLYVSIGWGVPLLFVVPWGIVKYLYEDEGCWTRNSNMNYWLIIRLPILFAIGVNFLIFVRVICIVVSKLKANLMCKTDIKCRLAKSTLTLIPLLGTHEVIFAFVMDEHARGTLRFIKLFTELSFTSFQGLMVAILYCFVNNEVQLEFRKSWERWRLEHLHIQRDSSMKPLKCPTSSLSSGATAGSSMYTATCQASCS
T3 sequence (P47871 26-477): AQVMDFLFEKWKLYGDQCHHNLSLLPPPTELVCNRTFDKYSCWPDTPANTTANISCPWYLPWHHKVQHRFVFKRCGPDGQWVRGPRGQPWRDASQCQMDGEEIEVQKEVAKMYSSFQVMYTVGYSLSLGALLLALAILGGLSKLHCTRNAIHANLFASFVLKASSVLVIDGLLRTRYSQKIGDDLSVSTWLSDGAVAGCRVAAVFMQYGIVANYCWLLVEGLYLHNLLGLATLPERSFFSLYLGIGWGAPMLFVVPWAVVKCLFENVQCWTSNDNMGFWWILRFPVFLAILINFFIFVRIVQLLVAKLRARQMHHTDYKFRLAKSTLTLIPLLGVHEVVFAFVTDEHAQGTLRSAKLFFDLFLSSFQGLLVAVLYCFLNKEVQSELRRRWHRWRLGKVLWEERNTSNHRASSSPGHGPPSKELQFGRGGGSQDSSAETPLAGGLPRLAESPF

Compound: CCCCCCCCCCCCCCCC(=O)N[C@@H](CCC(=O)NCCCC[C@H](NC(=O)[C@H](CC(=O)O)NC(=O)[C@H](CC(C)C)NC(=O)[C@H](Cc1ccc(O)cc1)NC(=O)[C@H](CCCCN)NC(=O)[C@H](CO)NC(=O)[C@H](Cc1ccc(O)cc1)NC(=O)[C@H](CC(=O)O)NC(=O)[C@H](CO)NC(=O)[C@@H](NC(=O)[C@H](Cc1ccccc1)NC(=O)[C@@H](NC(=O)CNC(=O)[C@H](CCC(N)=O)NC(=O)C(C)(C)NC(=O)[C@@H](N)Cc1c[nH]cn1)[C@@H](C)O)[C@@H](C)O)C(=O)N[C@@H](CCCNC(=N)N)C(=O)N[C@@H](C)C(=O)N[C@@H](C)C(=O)N[C@@H](CCC(N)=O)C(=O)N[C@@H](CC(=O)O)C(=O)N[C@@H](Cc1ccccc1)C(=O)N[C@H](C(=O)N[C@@H](CCC(N)=O)C(=O)N[C@@H](Cc1c[nH]c2ccccc12)C(=O)N[C@@H](CC(C)C)C(=O)N[C@@H](CC(C)C)C(=O)N[C@@H](CC(=O)O)C(=O)NCC(=O)NCC(=O)N1CCC[C@H]1C(=O)N[C@@H](CO)C(=O)N[C@@H](CO)C(=O)NCC(=O)N[C@@H](C)C(=O)N1CCC[C@H]1C(=O)N1CCC[C@H]1C(=O)N1CCC[C@H]1C(=O)N[C@@H](CO)C(N)=O)C(C)C)C(=O)O [SEQ ID NO: 153] (H-H[Aib]QGTFTSDYSKYLDK([γGlu-Palmitoyl])RAAQDFVQWLLDGGPSSGAPPPS-NH2; N-terminus assumed)
- pEC50 (GIP receptor; Table 10, Example 16, read-out: GIP-1 Receptor EC50): 9.56
- pEC50 (GLP-1 receptor; GLP-1 Receptor EC50, Table 10, Example 16): 11.15
- pEC50 (glucagon receptor; Glucagon Receptor EC50, Table 10, Example 16): 10.92

Compound: CCCCCCCCCCCCCCCC(=O)N[C@@H](CCC(=O)NCCCC[C@H](NC(=O)[C@H](CC(=O)O)NC(=O)[C@H](CO)NC(=O)[C@@H](NC(=O)[C@H](Cc1ccccc1)NC(=O)[C@@H](NC(=O)CNC(=O)[C@H](CCC(=O)O)NC(=O)C(C)(C)NC(=O)[C@@H](N)Cc1c[nH]cn1)[C@@H](C)O)[C@@H](C)O)C(=O)N[C@@H](CO)C(=O)N[C@@H](CCCCN)C(=O)N[C@@H](Cc1ccc(O)cc1)C(=O)N[C@@H](CC(C)C)C(=O)N[C@@H](CC(=O)O)C(=O)N[C@@H](CCC(=O)O)C(=O)N[C@@H](CCCNC(=N)N)C(=O)N[C@@H](C)C(=O)N[C@@H](C)C(=O)N[C@@H](CCC(N)=O)C(=O)N[C@@H](CC(=O)O)C(=O)N[C@@H](Cc1ccccc1)C(=O)N[C@H](C(=O)N[C@@H](CCC(N)=O)C(=O)N[C@@H](Cc1c[nH]c2ccccc12)C(=O)N[C@@H](CC(C)C)C(=O)N[C@@H](CC(C)C)C(=O)N[C@@H](CC(=O)O)C(=O)NCC(=O)NCC(=O)N1CCC[C@H]1C(=O)N[C@@H](CO)C(=O)N[C@@H](CO)C(=O)NCC(=O)N[C@@H](C)C(=O)N1CCC[C@H]1C(=O)N1CCC[C@H]1C(=O)N1CCC[C@H]1C(=O)N[C@@H](CO)C(N)=O)C(C)C)C(=O)O [compound 39] (H-H[Aib]EGTFTSDK([γGlu-Palmitoyl])SKYLDERAAQDFVQWLLDGGPSSGAPPPS-NH2; N-terminus assumed)
- EC50 (GIP receptor; [1]): 0.026 nM
- EC50 (GLP-1 receptor; [1]): 0.008 nM
- EC50 (glucagon receptor; [1]): 1.28 nM

Compound: H[Aib]QGTFTSDYSKYLDERAAQDFVQWLLDGGPSSGAPPPS[Phe(4-NH2)]([γGlu-γGlu-Palmitoyl])G-NH2 [SEQ ID NO: 145]
- pEC50 (GIP receptor): 10.77
- pEC50 (GLP-1 receptor): 11.70
- pEC50 (glucagon receptor): 11.70

Compound: Example 8 peptide: Tyr1, AIB2, Glu16/Lys20 lactam, Leu-Ala-Gly 27-29, GPSSGAPPPS 30-39, or a peptide lacking a lactam [mt-217]
- pEC50 (GIP receptor; Table 3, Example 8, read-out: GIPR EC50): 8.02
- GIPR relative activity (GIP receptor; [2]): 0.20%
- pEC50 (GLP-1 receptor; Table 3, Example 8, read-out: GLP-1R EC50): 9.65
- GLP-1R relative activity (GLP-1 receptor; [2]): 11.26%
- GR relative activity (glucagon receptor; [2]): 0.82%

Compound: CCCCCCCCCCCCCCCC(=O)N[C@@H](CCC(=O)NCCCC[C@H](NC(=O)[C@H](CC(=O)O)NC(=O)[C@H](CO)NC(=O)[C@@H](NC(=O)[C@H](Cc1ccccc1)NC(=O)[C@@H](NC(=O)CNC(=O)[C@H](CCC(N)=O)NC(=O)C(C)(C)NC(=O)[C@@H](N)Cc1c[nH]cn1)[C@@H](C)O)[C@@H](C)O)C(=O)N[C@@H](CO)C(=O)N[C@@H](CCCCN)C(=O)N[C@@H](Cc1ccc(O)cc1)C(=O)N[C@@H](CC(C)C)C(=O)N[C@@H](CC(=O)O)C(=O)N[C@@H](CCC(=O)O)C(=O)N[C@@H](CCCNC(=N)N)C(=O)N[C@@H](C)C(=O)N[C@@H](C)C(=O)N[C@@H](CCC(N)=O)C(=O)N[C@@H](CC(=O)O)C(=O)N[C@@H](Cc1ccccc1)C(=O)N[C@H](C(=O)N[C@@H](CCC(N)=O)C(=O)N[C@@H](Cc1c[nH]c2ccccc12)C(=O)N[C@@H](CC(C)C)C(=O)N[C@@H](CC(C)C)C(=O)N[C@@H](CC(=O)O)C(=O)NCC(=O)NCC(=O)N1CCC[C@H]1C(=O)N[C@@H](CO)C(=O)N[C@@H](CO)C(=O)NCC(=O)N[C@@H](C)C(=O)N1CCC[C@H]1C(=O)N1CCC[C@H]1C(=O)N1CCC[C@H]1C(=O)N[C@@H](CO)C(N)=O)C(C)C)C(=O)O [compound 28]
- EC50 (GIP receptor; [1]): 0.003 nM
- EC50 (GIP receptor; Table 7, Example 13): 0.003 nM
- EC50 (GLP-1 receptor; [1]): 0.002 nM
- EC50 (GLP-1 receptor; Table 7, Example 13): 0.002 nM
- EC50 (glucagon receptor; [1]): 0.002 nM
- EC50 (glucagon receptor; Table 7, Example 13): 0.002 nM

Compound: CCCCCCCCCCCCCCCC(=O)N[C@@H](CCC(=O)NCCCC[C@H](NC(=O)[C@H](CC(=O)O)NC(=O)[C@H](CO)NC(=O)[C@@H](NC(=O)[C@H](Cc1ccccc1)NC(=O)[C@@H](NC(=O)CNC(=O)[C@H](CCC(N)=O)NC(=O)C(C)(C)NC(=O)[C@@H](N)Cc1c[nH]cn1)[C@@H](C)O)[C@@H](C)O)C(=O)N[C@@H](CO)C(=O)N[C@@H](CCCCN)C(=O)N[C@@H](Cc1ccc(O)cc1)C(=O)N[C@@H](CC(C)C)C(=O)N[C@@H](CC(=O)O)C(=O)N[C@@H](CCC(=O)O)C(=O)N[C@@H](CCCNC(=N)N)C(=O)N[C@@H](CCCNC(=N)N)C(=O)N[C@@H](C)C(=O)NC(C)(C)C(=O)N[C@@H](CCC(=O)O)C(=O)N[C@@H](Cc1ccccc1)C(=O)N[C@H](C(=O)N[C@@H](CCC(N)=O)C(=O)N[C@@H](Cc1c[nH]c2ccccc12)C(=O)N[C@@H](CC(C)C)C(=O)N[C@@H](CC(C)C)C(=O)N[C@@H](CC(=O)O)C(=O)N[C@H](C(N)=O)[C@@H](C)O)C(C)C)C(=O)O [compound 31] (H-H[Aib]QGTFTSDK([γGlu-Palmitoyl])SKYLDERRA[Aib]EFVQWLLDT-NH2; N-terminus assumed)
- EC50 (GIP receptor; [1]): 0.008 nM
- EC50 (GIP receptor; Table 7, Example 13): 0.008 nM
- EC50 (GLP-1 receptor; [1]): 0.0044 nM
- EC50 (glucagon receptor; [1]): 0.008 nM
- EC50 (glucagon receptor; Table 7, Example 13): 0.008 nM

Compound: CCCCCCCCCCCCCCCC(=O)N[C@@H](CCC(=O)NCCCCCCCCCCCC(=O)NCCCC[C@H](NC(=O)[C@H](CC(=O)O)NC(=O)[C@H](CO)NC(=O)[C@@H](NC(=O)[C@H](Cc1ccccc1)NC(=O)[C@@H](NC(=O)CNC(=O)[C@H](CCC(N)=O)NC(=O)C(C)(C)NC(=O)[C@@H](N)Cc1c[nH]cn1)[C@@H](C)O)[C@@H](C)O)C(=O)N[C@@H](CO)C(=O)N[C@@H](CCCCN)C(=O)N[C@@H](Cc1ccc(O)cc1)C(=O)N[C@@H](CC(C)C)C(=O)N[C@@H](CC(=O)O)C(=O)N[C@@H](CCC(=O)O)C(=O)N[C@@H](CCCNC(=N)N)C(=O)N[C@@H](C)C(=O)N[C@@H](C)C(=O)N[C@@H](CCC(N)=O)C(=O)N[C@@H](CC(=O)O)C(=O)N[C@@H](Cc1ccccc1)C(=O)N[C@H](C(=O)N[C@@H](CCC(N)=O)C(=O)N[C@@H](Cc1c[nH]c2ccccc12)C(=O)N[C@@H](CC(C)C)C(=O)N[C@@H](CC(C)C)C(=O)N[C@@H](CC(=O)O)C(=O)NCC(=O)NCC(=O)N1CCC[C@H]1C(=O)N[C@@H](CO)C(=O)N[C@@H](CO)C(=O)NCC(=O)N[C@@H](C)C(=O)N1CCC[C@H]1C(=O)N1CCC[C@H]1C(=O)N1CCC[C@H]1C(=O)N[C@@H](CO)C(N)=O)C(C)C)C(=O)O [SEQ ID NO: 162]
- pEC50 (GIP receptor; EC50 (cAMP, nmole) GIPR, Table 12, Example 19): 10.48
- pEC50 (GLP-1 receptor; EC50 (cAMP, nmole) GLPR, Table 12, Example 19): 11.52
- pEC50 (glucagon receptor): 11.10
